From patent publication US20230293521A1, “METHODS FOR SCREENING NOVEL CORONAVIRUS ANTIVIRALS AND METHODS OF USING ANTIVIRALS FOR THE TREATMENT OF CORONAVIRUS INFECTIONS” (priority 2020, published 2023)
Read-outs that look alike come from different tables or passages of the source.

Test system: SARS-CoV-2
Assay: Impedance-based (Maestro Z resistance/TEER) assay of SARS-CoV-2 cytopathic effect in Vero E6 monolayers
Type: cell-based
Conditions: for inhibitory activity against SARS-CoV-2 (percent inhibition relative to DMSO control): Vero E6, serial half-log dilutions, MOI 0.01, 48 hours; for IC90: Vero E6, MOI 0.01, normalized resistance at 48 hpi; for IC50: Vero E6, pre-treated 1 hour, MOI 0.01, normalized resistance at 48 hpi
[1] = Severe acute respiratory syndrome coronavirus 2, Vero C1008
[2] = Severe acute respiratory syndrome coronavirus 2, Vero C1008, non-toxic doses, read-out: estimated IC50

CCCCCCCCCCC[C@@H](C[C@@H]1OC(=O)[C@H]1CCCCCC)OC(=O)[C@H](CC(C)C)NC=O [Orlistat]
completeness of inhibition of viral cytopathic effects (with 500 µM, Vero E6): complete inhibition was not achieved

CS(=O)(=O)O.O=C([C@@H]1CCCN(c2ccc3[nH]c(C4(n5cc(Cl)cn5)CC4)nc3n2)C1)N1CCCC1 [PF06424439]
inhibitory activity against SARS-CoV-2 (percent inhibition relative to DMSO control): Neither compound displayed any inhibitory activity

CC1(C)Oc2ncnc(N)c2N=C1c1ccc([C@H]2CC[C@H](CC(=O)O)CC2)cc1 [T863]
inhibitory activity against SARS-CoV-2 (percent inhibition relative to DMSO control): Neither compound displayed any inhibitory activity

CC(C)(O)CNc1ncc(-c2ccnc(Nc3ccncc3)n2)c(CC2CC2)n1 [VPS34-IN1]
IC90 [1]: 2520 nM | IC50 [2]: < 600 nM

CCC/C=C/C/C=C/C=C/C=N/NN=O [Triacsin C]
IC50 (read-out: 50% inhibitory concentration (IC50)): ~20000 nM

Nc1ncc(-c2ccnc(Nc3ccncc3)n2)c(CC2CC2)n1 [PIK-III]
IC90 [1]: 1810 nM | IC50 [2]: < 600 nM

CCC(CC)COC(=O)[C@H](C)N[P@](=O)(OC[C@H]1O[C@@](C#N)(c2ccc3c(N)ncnn23)[C@H](O)[C@@H]1O)Oc1ccccc1 [Remdesivir]
IC50 (Severe acute respiratory syndrome coronavirus 2, Vero C1008, read-out: 50% inhibitory concentration (IC50)): 1540 nM
